Test results: PMC8389807 (Journal of Medicinal Chemistry, 2021)
Read-outs that look alike come from different tables or passages of the source.

Legend:
HIV-1 (NL4.3) [1] = experiment: microbe, parasite or virus in culture; format: cell-based; details: MT-4 cells, 50% reduction of virus-induced cytopathic effect
HIV-2 (ROD) = experiment: Anti-HIV-2 activity in MT-4 cells (CPE, MTS/PES); format: cell-based
in vitro [2] = details: human
[3] = test system: BrCr Lab Strain of EV-A71; experiment: Antiviral activity against the BrCr lab strain of EV-A71 in RD cells (CPE reduction, MTS/PMS); format: cell-based; details: Enterovirus A
in vitro [4] = details: human; remark: listed apart in the source
[5] = test system: EV71 genogroup B2 strain 11316; experiment: microbe, parasite or virus in culture; format: cell-based; details: Enterovirus A, genogroup B2, strain 11316, RD cells
[6] = test system: EV71 genogroup B5 strain TW/70902/08; experiment: microbe, parasite or virus in culture; format: cell-based; details: Enterovirus A, genogroup B5, strain TW/70902/08, RD cells
[7] = test system: EV71 genogroup C2 strain H08300 461#812; experiment: microbe, parasite or virus in culture; format: cell-based; details: Enterovirus A, genogroup C2, strain H08300 461#812, RD cells
[8] = test system: EV71 genogroup C4 strain TW/1956/05; experiment: microbe, parasite or virus in culture; format: cell-based; details: Enterovirus A, genogroup C4, strain TW/1956/05, RD cells
HIV = test system: HIV; parameters: method as in PMID 26513643, PMID 31809045; details: Figure 1, earlier prototypes; cited from earlier work
EV71 = test system: EV71; parameters: method as in PMID 27246775, PMID 31809045; details: Figure 1, earlier prototypes; cited from earlier work
HIV-1 (NL4.3) [9] = experiment: microbe, parasite or virus in culture; format: cell-based; details: CXCR4-tropic strain, PBMC; for EC50: read-out: HIV-1 (NL4.3) EC50
HIV-1 (Ba-L) = experiment: microbe, parasite or virus in culture; format: cell-based; details: read-out: HIV-1 (Ba-L) EC50, CCR5-tropic strain, PBMC
[10] = Cytotoxicity in MT-4 cells (MTS/PES); details: human
[11] = Human immunodeficiency virus 1, MT4
[12] = Human immunodeficiency virus 2, MT4, MT-4 cells, 50% reduction of virus-induced cytopathic effect, read-out: HIV-2 (ROD) EC50
[13] = EVA71, RD, BrCr lab strain, RD cells, 50% reduction of virus-induced CPE, read-out: EC50

## O=C(CCOCC(COCCC(=O)NC(Cc1c(-c2ccc(C(=O)O)cc2)[nH]c2ccccc12)C(=O)O)(COCCC(=O)NC(Cc1c(-c2ccc(C(=O)O)cc2)[nH]c2ccccc12)C(=O)O)COCCC(=O)NC(Cc1c(-c2ccc(C(=O)O)cc2)[nH]c2ccccc12)C(=O)O)NC(Cc1c(-c2ccc(C(=O)O)cc2)[nH]c2ccccc12)C(=O)O (stereo not shown) [IV, reference compound]
HIV-1 (NL4.3) [1]; [11]
  EC50: 0.7 ± 0.5 µM
HIV-2 (ROD); [12]
  EC50: 0.7 ± 0.8 µM
In vitro [2]
  CC50: > 100 µM

## O=C(CCOCC(COCCC(=O)NC(Cc1c(-c2ccc(C(=O)O)cc2)[nH]c2c(-c3ccc(C(=O)O)cc3)cccc12)C(=O)O)(COCCC(=O)NC(Cc1c(-c2ccc(C(=O)O)cc2)[nH]c2c(-c3ccc(C(=O)O)cc3)cccc12)C(=O)O)COCCC(=O)NC(Cc1c(-c2ccc(C(=O)O)cc2)[nH]c2c(-c3ccc(C(=O)O)cc3)cccc12)C(=O)O)NC(Cc1c(-c2ccc(C(=O)O)cc2)[nH]c2c(-c3ccc(C(=O)O)cc3)cccc12)C(=O)O (stereo not shown) [Compound 32]
[3]; [13]
  EC50: 0.1 ± 0.02 µM
HIV-1 (NL4.3) [1]; [11]
  EC50: 0.2 ± 0.2 µM
HIV-2 (ROD); [12]
  EC50: 0.02 ± 0.02 µM
In vitro [4]
  CC50: > 100 µM
In vitro [2]
  CC50: > 100 µM

## O=C(CCC(CCC(=O)NC(Cc1c(-c2cc(C(=O)O)cc(C(=O)O)c2)[nH]c2ccccc12)C(=O)O)(CCC(=O)NC(Cc1c(-c2cc(C(=O)O)cc(C(=O)O)c2)[nH]c2ccccc12)C(=O)O)[N+](=O)[O-])NC(Cc1c(-c2cc(C(=O)O)cc(C(=O)O)c2)[nH]c2ccccc12)C(=O)O (stereo not shown) [AL-470, reference compound]
[3]; [13]
  EC50: 0.3 ± 0.03 µM
[3]; EVA71, RD, genogroup A, BrCr, RD cells (clinical isolate panel), read-out: EC50
  EC50: 0.353 ± 0.031 µM
[5]
  EC50: 0.179 ± 0.011 µM
[6]
  EC50: 0.081 ± 0.013 µM
[7]
  EC50: 0.057 ± 0.0002 µM
[8]
  EC50: 0.038 ± 0.003 µM
HIV-1 (NL4.3) [1]; [11]
  EC50: 0.3 ± 0.1 µM
HIV-2 (ROD); [12]
  EC50: 0.6 ± 0.8 µM
HIV
  EC50: 0.27 ± 0.12 µM
EV71
  EC50: 0.35 ± 0.03 µM

## maraviroc
HIV-1 (NL4.3) [9]
  HIV-1 (NL4.3) EC50: insensitive
  EC50: > 1 µM
HIV-1 (Ba-L)
  EC50: 0.00448 µM

## O=C(CCC(CCC(=O)NC(Cc1c[nH]c2c(-c3cccc(C(=O)O)c3)cccc12)C(=O)O)(CCC(=O)NC(Cc1c[nH]c2c(-c3cccc(C(=O)O)c3)cccc12)C(=O)O)[N+](=O)[O-])NC(Cc1c[nH]c2c(-c3cccc(C(=O)O)c3)cccc12)C(=O)O (stereo not shown) [Compound 14]
[3]; [13]
  EC50: 54.8 ± 34.1 µM
HIV-1 (NL4.3) [1]; [11]
  EC50: 45.1 ± 10.2 µM
HIV-2 (ROD); [12]
  EC50: > 30 µM
In vitro [4]
  CC50: > 84 µM
In vitro [2]
  CC50: > 100 µM

## O=C(CCOCC(COCCC(=O)NC(Cc1c[nH]c2c(-c3cccc(C(=O)O)c3)cccc12)C(=O)O)(COCCC(=O)NC(Cc1c[nH]c2c(-c3cccc(C(=O)O)c3)cccc12)C(=O)O)COCCC(=O)NC(Cc1c[nH]c2c(-c3cccc(C(=O)O)c3)cccc12)C(=O)O)NC(Cc1c[nH]c2c(-c3cccc(C(=O)O)c3)cccc12)C(=O)O (stereo not shown) [Compound 21]
[3]; [13]
  EC50: 3.1 ± 1.1 µM
HIV-1 (NL4.3) [1]; [11]
  EC50: 14.1 ± 0.6 µM
HIV-2 (ROD); [12]
  EC50: 7.9 ± 0.9 µM

## O=C(CCOCC(COCCC(=O)NC(Cc1c[nH]c2c(-c3cc(C(=O)O)cc(C(=O)O)c3)cccc12)C(=O)O)(COCCC(=O)NC(Cc1c[nH]c2c(-c3cc(C(=O)O)cc(C(=O)O)c3)cccc12)C(=O)O)COCCC(=O)NC(Cc1c[nH]c2c(-c3cc(C(=O)O)cc(C(=O)O)c3)cccc12)C(=O)O)NC(Cc1c[nH]c2c(-c3cc(C(=O)O)cc(C(=O)O)c3)cccc12)C(=O)O (stereo not shown) [Compound 23]
[3]; [13]
  EC50: 0.3 ± 0.04 µM
HIV-1 (NL4.3) [1]; [11]
  EC50: 0.02 ± 0.01 µM
HIV-2 (ROD); [12]
  EC50: 0.02 ± 0.02 µM
In vitro [4]
  CC50: > 55 µM
In vitro [2]
  CC50 at 120 h: 75 µM

## CN[C@@H]1[C@H](O[C@@H]2OC[C@@H](O)[C@H](O)[C@H]2O)[C@@H](O)[C@H](O[C@H]2c3cc(C)c(C(=O)N[C@H](C)C(=O)O)c(O)c3-c3c(cc4c(c3O)C(=O)c3cc(OC)cc(O)c3C4=O)[C@@H]2O)O[C@@H]1C [PRM-A, pradimicin A, reference compound]
HIV-1 (NL4.3) [1]; [11]
  EC50: 3.3 ± 1.2 µM
HIV-2 (ROD); [12]
  EC50: 5.9 ± 3.7 µM
[10]
  CC50 at 5 days: > 100 µM

## dextran sulfate-5000 [DS-5000, reference compound]
HIV-1 (NL4.3) [1]
  EC50: 0.07 ± 0.02 µM
HIV-2 (ROD); MT-4 cells, 50% reduction of virus-induced cytopathic effect, read-out: HIV-2 (ROD) EC50
  EC50: 0.03 ± 0.01 µM

## O=C(CCOCC(COCCC(=O)NC(Cc1c(-c2cccc(C(=O)O)c2)[nH]c2ccccc12)C(=O)O)(COCCC(=O)NC(Cc1c(-c2cccc(C(=O)O)c2)[nH]c2ccccc12)C(=O)O)COCCC(=O)NC(Cc1c(-c2cccc(C(=O)O)c2)[nH]c2ccccc12)C(=O)O)NC(Cc1c(-c2cccc(C(=O)O)c2)[nH]c2ccccc12)C(=O)O (stereo not shown) [III, reference compound]
HIV-1 (NL4.3) [1]; [11]
  EC50: 2 ± 0.6 µM
HIV-2 (ROD); [12]
  EC50: 0.8 ± 0.5 µM
In vitro [2]
  CC50: > 100 µM

## CCOC(=O)c1ccc(OCCC2CCN(c3ccc(C)nn3)CC2)cc1 [pirodavir, reference compound]
[3]; EVA71, BrCr lab strain, RD cells, 50% reduction of virus-induced CPE, read-out: EC50
  EC50: 0.3 ± 0.1 µM
In vitro [4]
  CC50 at 3 days: > 100 µM

## O=C(CCC(CCC(=O)NC(Cc1c(-c2ccc(C(=O)O)cc2)[nH]c2ccccc12)C(=O)O)(CCC(=O)NC(Cc1c(-c2ccc(C(=O)O)cc2)[nH]c2ccccc12)C(=O)O)[N+](=O)[O-])NC(Cc1c(-c2ccc(C(=O)O)cc2)[nH]c2ccccc12)C(=O)O (stereo not shown) [II, reference compound]
HIV-1 (NL4.3) [1]; [11]
  EC50: 2.4 ± 1.3 µM
HIV-2 (ROD); [12]
  EC50: > 71 µM
In vitro [2]
  CC50: 71 µM

## NC(Cc1c(-c2cc(C(=O)O)cc(C(=O)O)c2)[nH]c2c(-c3cc(C(=O)O)cc(C(=O)O)c3)cc(-c3cc(C(=O)O)cc(C(=O)O)c3)cc12)C(=O)O (stereo not shown) [Compound 37, 5,5′,5″-(3-(2-Amino-2-carboxyethyl)-1H-indole-2,5,7-triyl)triisophthalic Acid]
[3]; EVA71, RD
  EC50: > 90 µM
HIV-1 (NL4.3) [1]; [11]
  EC50: > 100 µM
HIV-2 (ROD); Human immunodeficiency virus 2, MT4, read-out: HIV-2 (ROD) EC50
  EC50: > 100 µM
[10]
  CC50 at 5 days: > 100 µM

## c1cc(CN2CCCNCCNCCCNCC2)ccc1CN1CCCNCCNCCCNCC1 [AMD3100]
HIV-1 (NL4.3) [9]; Human immunodeficiency virus 1
  EC50: 3.57 ng/mL
HIV-1 (Ba-L); Human immunodeficiency virus 1, BAL
  EC50: > 1000 ng/mL

## O=C(CCC(CCC(=O)NC(Cc1c[nH]c2c(-c3cc(C(=O)O)cc(C(=O)O)c3)cccc12)C(=O)O)(CCC(=O)NC(Cc1c[nH]c2c(-c3cc(C(=O)O)cc(C(=O)O)c3)cccc12)C(=O)O)[N+](=O)[O-])NC(Cc1c[nH]c2c(-c3cc(C(=O)O)cc(C(=O)O)c3)cccc12)C(=O)O (stereo not shown) [Compound 16]
[3]; [13]
  EC50: 1.2 ± 0.2 µM
HIV-1 (NL4.3) [1]; [11]
  EC50: 0.4 ± 0.2 µM
HIV-2 (ROD); [12]
  EC50: 1.9 ± 0.4 µM

## O=C(CCOCC(COCCC(=O)NC(Cc1c[nH]c2c(-c3ccc(C(=O)O)cc3)cccc12)C(=O)O)(COCCC(=O)NC(Cc1c[nH]c2c(-c3ccc(C(=O)O)cc3)cccc12)C(=O)O)COCCC(=O)NC(Cc1c[nH]c2c(-c3ccc(C(=O)O)cc3)cccc12)C(=O)O)NC(Cc1c[nH]c2c(-c3ccc(C(=O)O)cc3)cccc12)C(=O)O (stereo not shown) [Compound 22]
[3]; [13]
  EC50: 1.7 ± 0.4 µM
HIV-1 (NL4.3) [1]; [11]
  EC50: 6.5 ± 2.5 µM
HIV-2 (ROD); [12]
  EC50: 0.4 ± 0.3 µM
In vitro [4]
  CC50: > 100 µM
In vitro [2]
  CC50: > 100 µM

## O=C(CCC(CCC(=O)NC(Cc1c(-c2cccc(C(=O)O)c2)[nH]c2ccccc12)C(=O)O)(CCC(=O)NC(Cc1c(-c2cccc(C(=O)O)c2)[nH]c2ccccc12)C(=O)O)[N+](=O)[O-])NC(Cc1c(-c2cccc(C(=O)O)c2)[nH]c2ccccc12)C(=O)O (stereo not shown) [I, reference compound]
HIV-1 (NL4.3) [1]; [11]
  EC50: 16 ± 5.7 µM
HIV-2 (ROD); [12]
  EC50: 64 ± 28 µM
In vitro [2]
  CC50: > 100 µM
